Columns and labels:
[1] = system: pERK1/2; assay: Western blotting, 6-OAP/BOR; assay type: cell-based, human; conditions: MM.1S; 6-OAP 5 µM for 6 h
Description: Cell pellets were lysed in RIPA buffer containing 50 mM Tris pH 8.0, 150 mM NaCl, 0.1% SDS, 0.5% deoxycholate, 1% NP-40, 1 mM DTT, 1 mM NaF, 1 mM sodium vanadate, and protease inhibitors cocktail (Sigma). For immunoprecipitations, cells were lysed on ice for 15 minutes in RIPA buffer. Lysates were centrifuged. The supernatant was incubated with indicated antibodies overnight, after which protein A/G Plus beads (Santa Cruz Biotechnology) were added and incubated for 3 h. The beads were washed 4 times in RIPA buffer. Then the beads were resuspended in 1× sample buffer and boiled for 3 min. Protein extracts were quantitated and loaded on 8% to 12% sodium dodecyl sulfate polyacrylamide gel, electrophoresed, and transferred to a nitrocellulose membrane (Whatman). The membrane was incubated with primary antibody, washed, and incubated with horseradish peroxidase (HRP)–conjugated secondary antibody (Pierce). Detection was performed by using a chemiluminescent western detection kit (Cell Signaling). […]

[2] = system: MM.1S cells; assay: Cell cycle distribution by flow cytometry; assay type: cell-based, human; conditions: 5 to 10 µM for 48 h
Description: (§1) MM cells were synchronized to G1/S boundary by a double-thymidine block. Briefly, cells were treated with 2 mM thymidine (Sigma-Aldrich) for 16 h, released into fresh medium for 9 h and subjected again to thymidine for another 16 h and then exposed to 6-OAP for indicated time points. Cells were harvested, fixed with 70% cold ethanol, incubated with RNase, and stained with propidium iodide (PI) (Sigma-Aldrich). Cell cycle distribution was analyzed by flow cytometry and CellQuest software (Becton Dickson).
(§2) Figure 2 6-OAP induces mitotic arrest in MM cells. (A) U266 cells were treated with 6-OAP at 7.5 µM for 0, 24, 48 h and imaged by Leica DMI 400B microscope. (B) U266 cells were treated with 6-OAP at indicated concentrations for 48 h. Cell cycle distribution was determined by flow cytometry. (C) MM.1S cells were treated with 5 µM 6-OAP for 48 h. Cell cycle distribution was determined by flow cytometry. (D) U266 cells were treated with 6-OAP at 5 to 7.5 µM for 24 h (left panel) or at 7.5 µM for 12 to 24 h (right panel). For immunofluorescence analysis of microtubules, cells was stained with an anti-α-tubulin antibody to visualize microtubules (green) and DAPI to counter stained DNA (blue) and observed by confocal microscopy. (E) Indicated cells were treated with 6-OAP at indicated concentration for 24 h, lysed, and Western blotting was performed using antibodies indicated. […]

[3] = system: U266 cells; assay: Cell cycle distribution by flow cytometry; assay type: cell-based, human; conditions: 5 to 10 µM for 48 h
Description: as §1, §2

[4] = system: Bacillus subtilis; set-up: method as in PMID 9461679, PMID 8657743, PMID 12521264; conditions: cited from earlier work

## CC=C(C)C(=O)OC1C2C(CC(C)C3C=CC(=O)C31C)OC(=O)C2C (stereo not shown) [6-OAP, 6-O-angeloylplenolin]
[1]
  phosphorylated ERK1/2: induced an increase in phosphorylated ERK1/2
[2]
  cells in G2/M phase: accumulation
[3]
  cells in G2/M phase: accumulation
[4]
  antibacterial activity: exhibit antibacterial activity
